For series [1] the following is noted: in water; cited from earlier work.
Series [2] can be described thus: Sweetness detection threshold level in water, multi-sip and swallow taste method. Conditions: for Sweetness Detection Threshold Level: in water at room temperature. It is filed as in vivo, human. An excerpt: As used herein, the terms “sweetness threshold,” “sweetness recognition threshold,” and “sweetness detection threshold” are understood to mean the level at which the lowest known concentration of a certain sweet compound that is perceivable by the human sense of taste and it can vary from person to person. For example, a typical sweetness threshold level for sucrose in water can be 0.5%.
Further for example, the at least one sweetness enhancer to be used can be assayed in water at least 25% lower and at least 25% higher than the sucrose detection level of 0.5% in water to determine the sweetness threshold level.
(§1) A first sip (approximately 2.2 mL) of a ca. 20 mL control composition was taken and swallowed. After waiting for a time ranging from 15 to 25 seconds, a second sip of control composition was taken and swallowed, and the sweetness and/or taste of the control composition was noted. After waiting for a time ranging from 15 to 25 seconds, these steps were repeated with a comparative composition. The sweetness and taste differences between the control and the comparative composition were noted. For each tested composition, this cycle was repeated once to confirm the initial findings. All samples were measured at average 23.0° C.±1° C. between samples for consistent comparison and to minimize any effects of temperature on the perceived taste or sweetness of the composition.
(§2) To perform the taste test, three sweetener samples were paired with one additive and taste tested as described above. A three minute break was taken before tasting another three sweetener samples paired with a different additive. Up to 10 additives per day were used to minimize a fatigue factor. Before tasting, at least 1.5 hours elapsed after ingestion of any food, drink or nicotine. The tests were repeated on a different date to validate the initial findings.
The sweetness detection threshold levels for 21 entities were measured by a single assessor in water at room temperature according to the multi-sip and swallow taste method described herein.

Series [3] in a line: Sweetness enhancement of glucose, fructose or sucrose at 6% SE in water by additive at its threshold level. In kind it is in vivo, human. Further details: key: T: Slight thicker-like sweetness (not intensity factor).; No difference; N(S+): No difference but slightly more sweet (0.5-0.75%); +S: More sweetness intensity (~1.0% SE); ++S: Much more sweetness intensity (~2.0% SE). Conditions: room temperature, additive at its Table 1 threshold level; for Sensory result versus FRU 55,000 ppm: fructose at 6% SE in water; for Sensory result versus GLU 99,000 ppm: glucose at 6% SE in water; for Sensory result versus SUC 60,000 ppm: sucrose at 6% SE in water. The protocol:
as §1, §2
The twenty-one entities above were combined in a concentration at the sweetness detection threshold level listed in Table 1, with one of Glucose (GLU), Fructose (FRU), and Sucrose (SUG), each at a fixed SE (Sucrose Equivalents) level of 6%. The sweetness of the compositions was measured as described above at room temperature.

Series [4] can be described thus: Rubusoside sweetness detection threshold estimation in water, sip-and-spit, 5 subjects. In kind it is in vivo, human. Conditions: 50 ppm solution in purified water, all 5 subjects. As to the method: Preliminarily, a 1,000 ppm steviol glycoside solution was prepared by dissolution of 20 mg steviol glycoside in 20 mL purified water. An aliquot (10 mL) of this solution was diluted to 20 mL with water to obtain a 500 ppm solution. Additional 1:1 serial dilutions were used to obtain 250, 125, 62.5, 31.2 and 15.6 ppm solutions. Those solutions were then tasted in ascending order of concentration by one experienced subject by using the sip-and-spit protocol disclosed herein. The subject's estimated sweetness detection threshold was determined to be at the lowest concentration at which sweetness was definitely observed.
Thereafter, a 200 ppm solution of rubusoside was prepared by dissolution of 20 mg rubusoside in 200 mL purified water. An aliquot (50 mL) of this solution then was diluted to 100 mL with water to obtain a 100 ppm solution. Additional 1:1 serial dilution steps were used to prepare 50 and 25 ppm solutions. These solutions then were tasted in ascending order of concentration by 5 experienced subjects by the sip-and-spit protocol.

Series [5] in a line: Rubusoside and 6% sucrose sweetness enhancement test. In kind it is in vivo, human. The note with it: 50 mg rubusoside in 1 L of 6% sucrose; scale of 6-10 relative to 6-10% sucrose references; 6% sucrose reference rated 6.1. The protocol:
Reference samples were prepared at 6, 7, 8, 9 and 10% sucrose (w/v). The test sample was prepared by addition of 50 mg of rubusoside to 1 L of 6% sucrose. The test sample was mixed with five sucrose control samples of various concentrations in the 6-10% sucrose range. Each of the six samples was then individually rated for sweetness intensity on a scale of 6-10 relative to the 6-10% sucrose references.
The Sweetness Intensity Rating ranged from 6 to 10, for each subject.

The nature of series [6]: Sweetness recognition threshold in lemon-lime carbonated beverage at 4° C. The note with it: lemon-lime carbonated beverage (citric buffer) at 4° C., average of six subjects. It is filed as in vivo, human. As to the method: Preliminarily, multi-levels of steviol glycoside solution in lemon-lime beverage at 4° C. were prepared by mixing the calculated formulations to obtain 450, 350, 250 and 150 ppm of steviol glycoside solutions. Those solutions were then tasted by six experienced subjects by using the sip-and-spit protocol disclosed herein. The sweetness recognition threshold for rubusoside was determined to be averaged 150 ppm. For sweetness enhancement test of rubusoside in lemon-lime beverage, it was decided to use a 10 percent less of sweetness recognition threshold or 135 ppm (150−10%=135).

A short description of series [7]: Descriptive sensory analysis of lemon-lime carbonated beverages at 4° C. In kind it is in vivo, human. Conditions: 135 ppm rubusoside added to 8% HFSS lemon-lime beverage. The protocol:
Three test products were prepare: a control beverage comprising 10.52% High Fructose Starch Syrup (HFSS), a lemon-lime prototype comprising 8% HFSS and 135 ppm rubusoside, and a standard lemon-lime beverage comprising 8% HFSS.
As part of study design, a full sensorial profile was determined using a Complete Block Design (CBD). All products were randomized and balanced. Each assessor evaluated all products sequentially. Each product was evaluated three times by each assessor. Eight minute time breaks between tasting samples. Unsalted cracker, 0.75% saline solution and mineral grade water was used as a mouth rinse and refresher before each sample. Each assessor was served 75 ml of chilled beverage (4° C.+/−1° C.). Table 5 provides the categories and the descriptions of the various attributes identified in Table 4.

Series [8] is described as follows: Sweetness enhancement of glucose, fructose or sucrose at 6% SE in water by additive at its threshold level. In kind it is in vivo, human. Conditions: for Sweetness of the composition after enhancement: from about 6% SE (sucrose control), REB C at 100 ppm, the other compound at 25 ppm.
Series [9] in a line: By-products of 500 ppm REB A after two months of storage in phosphoric acid at RT. In kind it is physicochemical. Conditions: approximated concentration of by-product of 500 ppm REB A.
Setting [10] is: estimation sweetness/off-taste threshold in water at room temperature (RT).

With `OC[C@H]1O[C@@](CO)(O[C@H]2O[C@H](CO)[C@@H](O)[C@H](O)[C@H]2O)[C@@H](O)[C@@H]1O` [sucrose], the “Typical sweetness threshold level” value in series [1] is reported as 0.5%.

For the compound `C=C1C[C@@]23CC[C@H]4[C@@](C)(CCC[C@@]4(C)C(=O)O[C@@H]4O[C@H](CO)[C@@H](O)[C@H](O)[C@H]4O)[C@@H]2CC[C@]1(O[C@@H]1O[C@H](CO)[C@@H](O)[C@H](O)[C@H]1O)C3` [Rubusoside], the “Sweetness Detection Threshold Level” value in series [2] (single assessor) was found to be 50 ppm. Further, in series [3], the “Sensory result versus FRU 55,000 ppm” value was “N(S+) (No difference but slightly more sweet (0.5-0.75%))”, the “Sensory result versus GLU 99,000 ppm” value is “N(S+) (No difference but slightly more sweet (0.5-0.75%))” and the “Sensory result versus SUC 60,000 ppm” value is listed as “++S (Much more sweetness intensity (~2.0% SE))”. The “Taste of the solution” value in [4] is “absence of taste”. For the same compound, the “Average sweetness intensity rating” value in series [5] is 7.9. The compound also showed a Sweetness recognition threshold in series [6] of 150 ppm. In addition, the “Times as sweet as the prototype without rubusoside” value in series [7] stood at 1.15 times. The Sweetness equivalence in series [7] (interpolation of the data) is 9.2 % HFSS. Also, the “Enhancement of the 6% sucrose” value in [8] (rubusoside at 50 ppm, 6% sucrose in water) is given as “about 2 % SE”.

As to `CC1(C(=O)O)CCCC2(C)C3CCC4(OC5OC(CO)C(O)C(OC6OC(CO)C(O)C(O)C6O)C5OC5OC(CO)C(O)C(O)C5O)CC3(CCC12)CC4(C)O` [13-[(2-O-β-D-glucopyranosyl-3-O-β-D-glucopyranosyl-β-D-glucopyranosyl)oxy]-16-hydroxy kauran-18-oic acid], the “Sweetness Threshold Level” value in series [2] (in water at RT, value is max. level for solubility) was 500 ppm. The “Sweetness Detection Threshold Level” value in series [2] (value is max. level for solubility) was 500 ppm. In addition, in series [3], the “Sensory result versus FRU 55,000 ppm” value is given as “N”, the “Sensory result versus GLU 99,000 ppm” value was “N” and the “Sensory result versus SUC 60,000 ppm” value is listed as “N”. Also, in [9], the “Levels After 2 Month of Storage” value turned out to be 33 ppm.

In the case of Rebaudioside B, the “Sweetness Threshold Level” value in series [2] (setting [10]) is given as 25 ppm. In addition, the “Sweetness Detection Threshold Level” value in [2] (single assessor) turned out to be 25 ppm. Further, in series [3], the “Sensory result versus FRU 55,000 ppm” value was “N”, the “Sensory result versus GLU 99,000 ppm” value is “N” and the “Sensory result versus SUC 60,000 ppm” value is “N”. The “Levels After 2 Month of Storage” value in [9] came to 17 ppm.

For `CC1=CC23CCC4C(C)(C(=O)O)CCCC4(C)C2CCC1(OC1OC(CO)C(O)C(OC2OC(CO)C(O)C(O)C2O)C1OC1OC(CO)C(O)C(O)C1O)C3` [13-[(2-O-β-D-glucopyranosyl-3-O-β-D-glucopyranosyl-β-D-glucopyranosyl)oxy] kaur-15-en-18-oic acid], the “Sweetness Threshold Level” value in series [2] (setting [10]) is listed as 35 ppm. For the same compound, in series [2] (single assessor), the “Sweetness Detection Threshold Level” value amounted to 35 ppm. In addition, in [3], the “Sensory result versus FRU 55,000 ppm” value was “N”, the “Sensory result versus GLU 99,000 ppm” value was “N” and the “Sensory result versus SUC 60,000 ppm” value was “N”. Also, the “Levels After 2 Month of Storage” value in [9] is reported as 1 ppm.

Regarding Rebaudioside C, the “Sweetness Detection Threshold Level” value in [2] (single assessor) came to 100 ppm. Besides, in series [3], the “Sensory result versus FRU 55,000 ppm” value is “N(S+) (No difference but slightly more sweet (0.5-0.75%))”, the “Sensory result versus GLU 99,000 ppm” value is “N(S+) (No difference but slightly more sweet (0.5-0.75%))” and the “Sensory result versus SUC 60,000 ppm” value is listed as “+S (More sweetness intensity (~1.0% SE))”. The “Sweetness of the composition after enhancement” value in series [8] is listed as “about 7 % SE”.

`CC1(C(=O)OC2OC(CO)C(O)C(O)C2O)CCCC2(C)C3CCC4(OC5OC(CO)C(O)C(OC6OC(CO)C(O)C(O)C6O)C5OC5OC(CO)C(O)C(O)C5O)CC3(CCC12)CC4(C)O` [13-[(2-O-β-D-glucopyranosyl-3-O-β-D-glucopyranosyl-β-D-glucopyranosyl)oxy]-16-hydroxy kauran-18-oic acid β-D-glucopyranosyl ester]: the “Sweetness Threshold Level” value in [2] (setting [10]) is reported as 700 ppm. Besides, in [2] (single assessor), the “Sweetness Detection Threshold Level” value is reported as 700 ppm. Besides, in series [3], the “Sensory result versus FRU 55,000 ppm” value is listed as “N”, the “Sensory result versus GLU 99,000 ppm” value is listed as “N” and the “Sensory result versus SUC 60,000 ppm” value was “N”. Moreover, the “Levels After 2 Month of Storage” value in [9] is on record as 10 ppm.

`C=C1CC23CCC4C(C)(C(=O)OC5OC(CO)C(O)C(O)C5O)CCCC4(C)C2CCC1(OC1OC(CO)C(O)C(OC2OC(CO)C(O)C(O)C2O)C1OC1OC(CO)C(O)C(OC2OC(CO)C(O)C(O)C2O)C1O)C3` [13-[(2-O-(3-O-α-D-glucopyranosyl)-β-D-glucopyranosyl-3-O-β-D-glucopyranosyl-β-D-glucopyranosyl)oxy] kaur-16-en-18-oic acid β-D-glucopyranosyl ester]: the “Sweetness Detection Threshold Level” value in [2] (single assessor) worked out at 25 ppm. Further, in series [3], the “Sensory result versus FRU 55,000 ppm” value is “N(S+) (No difference but slightly more sweet (0.5-0.75%))”, the “Sensory result versus GLU 99,000 ppm” value is recorded as “N(S+) (No difference but slightly more sweet (0.5-0.75%))” and the “Sensory result versus SUC 60,000 ppm” value is listed as “+S (More sweetness intensity (~1.0% SE))”. Moreover, the “Sweetness of the composition after enhancement” value in [8] was “about 7 % SE”.
